Consider 64 compounds from patent US8183252B2, “Heterocyclic aspartyl protease inhibitors” (Schering Corporation, priority 2007, dated 2012).

The structures appear in SMILES notation. Like-named read-outs stand apart in the source and are kept apart here.

Assay [1] has as its target T1, human liver Cathepsin D (Homo sapiens, UniProt P07339).
T1 construct: Purified (>95%) human liver Cathepsin D; purchased Athens Research & Technology 16-12-030104; host or cells: human liver (tissue-derived)
The experiment in a line: Human Cathepsin D FRET Assay. The assay is classed as biochemical. As to the method:
This assay can be run in either continuous or endpoint format. […] Substrate and enzyme are commercially available.
The assay is run in a 30 ul final volume using a 384 well Nunc black plate. 8 concentrations of compound are pre-incubated with enzyme for 30 mins at 37 C followed by addition of substrate with continued incubation at 37 C for 45 mins. The rate of increase in fluorescence is linear for over 1 h and is measured at the end of the incubation period using a Molecular Devices FLEX station plate reader.
Compound is diluted to 3× final concentration in assay buffer containing 3% DMSO. […] 10 ul of substrate is added to each well mixed and spun briefly to initiate the reaction.

For assay [2], the target named is T2, human BACE1 (sproBACE1) (Homo sapiens, UniProt P56817).
T2 construct: sBACE1, corresponding to amino acids 1-454; made in house; host or cells: Sf9 insect cells (baculovirus), secreted into the medium
The experiment in a line: BACE-1 Peptide Hydrolysis Assay (HTRF). It is filed as biochemical. In a few lines:
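Secreted sBACE1-myc/His from baculovirus-infected sf9 cells, purified on Q-sepharose then Ni-NTA. Substrate-initiated reactions ran 3 hr at 30° C., then were stopped with KF buffer (pH 8.0) containing SA-XL665 for HTRF read-out. EC50 was fitted by sigmoidal dose-response to percent change in ratio.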
(In TR-FRET formats the signal depends on donor and acceptor labels being close together.)

The mark [3] stands for this setting: compounds listed as exhibiting hCathD Ki under 75 nM, Ki interpolated from IC50, Km 4 uM, substrate 2.5 uM.

T1 sequence (P07339 65-161 limits assumed): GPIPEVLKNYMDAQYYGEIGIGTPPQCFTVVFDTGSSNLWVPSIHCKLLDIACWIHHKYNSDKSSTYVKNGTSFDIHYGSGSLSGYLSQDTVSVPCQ
T1 sequence (P07339 169-412 limits assumed): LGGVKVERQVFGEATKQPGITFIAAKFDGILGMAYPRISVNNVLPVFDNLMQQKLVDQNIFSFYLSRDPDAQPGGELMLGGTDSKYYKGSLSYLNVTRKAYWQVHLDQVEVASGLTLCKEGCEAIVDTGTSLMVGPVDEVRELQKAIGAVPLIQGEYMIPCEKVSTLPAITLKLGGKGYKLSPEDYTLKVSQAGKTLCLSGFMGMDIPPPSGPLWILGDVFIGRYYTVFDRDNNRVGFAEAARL
T2 sequence (P56817 22-454): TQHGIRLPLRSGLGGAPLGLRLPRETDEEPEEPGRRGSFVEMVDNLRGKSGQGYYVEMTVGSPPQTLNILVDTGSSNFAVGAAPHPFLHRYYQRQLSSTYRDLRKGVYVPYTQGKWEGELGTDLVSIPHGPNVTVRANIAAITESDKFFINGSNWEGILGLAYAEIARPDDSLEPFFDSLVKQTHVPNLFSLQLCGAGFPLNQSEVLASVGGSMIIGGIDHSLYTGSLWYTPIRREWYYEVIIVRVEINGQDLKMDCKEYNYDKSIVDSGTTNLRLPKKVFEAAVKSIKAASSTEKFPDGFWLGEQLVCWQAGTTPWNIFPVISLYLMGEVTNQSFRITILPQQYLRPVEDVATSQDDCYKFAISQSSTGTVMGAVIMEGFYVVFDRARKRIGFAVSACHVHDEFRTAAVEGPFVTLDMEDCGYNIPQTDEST

`CCCCOC1CCCC(C[C@@]2(CCC3CCCCC3)NC(=N)N(C)C2=O)C1` (stereo partly shown): in assay [1] (setting [3]), the Ki is less than 75 nM.
As for `N=C1NC(CCC2CCCCC2)(c2cccc(Br)c2)C(=O)N1CC1CCN(C(=O)COc2ccccc2)CC1` (stereo not shown), the Ki in assay [1] (setting [3]) was less than 75 nM.
Still for that read-out and setting: the result for `N=C1NC(CCC2CCCCC2)(CC2CCCCC2)C(=O)N1CC1CCN(C(=O)COc2ccccc2)CC1` (stereo not shown) reads less than 75 nM; that for `CCCCC1(c2cccc(Br)c2)NC(=N)N(CC2CCN(C(=O)COc3ccccc3)CC2)C1=O` (stereo not shown), less than 75 nM; that for `CCC[C@H]1CN(Cc2ccc(CC3C(=N)N[C@](CCC4CCCCC4)(CC4CCCCC4)C3=O)cc2)C(=O)N1` (stereo partly shown), less than 75 nM.
For `CCCCc1cccc(C2(CCCC)NC(=N)N(CC3CCN(C(=O)COc4ccccc4)CC3)C2=O)c1` (stereo not shown), the Ki in assay [1] (setting [3]) is less than 75 nM.
Same read-out and setting: the result for `N=C1N[C@](CCC2CCCCC2)(CC2CCCCC2)C(=O)N1Cc1ccc(F)cc1Cl` reads less than 75 nM.
For the compound `N=C1N[C@](CCC2CCCCC2)(CC2CCCCC2)C(=O)N1Cc1ccc(Cl)cc1Cl` [drawing 4522], the Ki in assay [1] (Ki interpolated from IC50 using Km 4 uM and substrate 2.5 uM, read-out: hCathD Ki) amounted to 0.45 nM.
For the compound `CCCCNC(=O)NCc1ccc(CN2C(=N)NC(CCC3CCCCC3)(CC3CCCCC3)CC2=O)cc1` (stereo not shown), the Ki in assay [1] (setting [3]) was less than 75 nM.
Same read-out and setting: the result for `N=C1N[C@](CCC2CCCCC2)(CC2CCCCC2)C(=O)N1Cc1ccc(Cl)cc1Cl` [drawing 4505] reads less than 75 nM; that for `N=C1N[C@](CCC2CCCCC2)(CC2CCCCC2)C(=O)N1CCC(c1ccccc1)c1ccccc1`, less than 75 nM.
Turning to `CCCCNC(=O)NCc1ccc(CN2C(=N)NC(CCC3CCCCC3)(CC3CCCCC3)C2=O)cc1` (stereo not shown), in assay [1] (setting [3]), the inhibition constant (Ki) was less than 75 nM.
On the same count and under the same terms, as for `N=C1N[C@](CCC2CCCCC2)(CC2CCCCC2)C(=O)N1Cc1ccc([N+](=O)[O-])cc1`, the figure is less than 75 nM; as for `N=C1N[C@](CCC2CCCCC2)(CC2CCCCC2)C(=O)N1Cc1cccc([N+](=O)[O-])c1`, less than 75 nM; as for `C[C@@H](C1CCCCC1)N1C(=N)N[C@](CCC2CCCCC2)(CC2CCCCC2)C1=O`, less than 75 nM.
On the same count and under the same terms, the result for `CC(C)C[C@H](CO)N1C(=N)N[C@](CCC2CCCCC2)(CC2CCCCC2)C1=O` reads less than 75 nM.
`CCCC(=O)N1CCC[C@@H](CN2C(=N)NC(c3ccccc3)(c3ccccc3)C2=O)C1`: the Ki in assay [2] (read-out: BACE-1 Ki) was less than 5 µM.
On the same count and under the same terms, as for `CN1C(=N)NC(c2ccccc2)(c2cccc(NS(=O)(=O)c3cccs3)c2)C1=O` (racemic), the figure is less than 5 µM; as for `Cc1cc(-c2cccc(C3(C4CC4)NC(=N)N(C)C3=O)c2)ccn1` (stereo not shown), less than 5 µM.
The same measure, in the same setting: the result for `CN1C(=N)NC(c2ccccc2)(c2cccc(-c3ccoc3)c2)C1=O` (racemic) [5-[3-(3-FURANYL)PHENYL]-2-IMINO-3-METHYL-5-PHENYL-4-IMIDAZOLIDINONE (RACEMIC), 5-[3-(3-FURANYL)PHENYL]-2-IMINO-3-METHYL-5-PHENYL-4-IMIDAZOLIDINONE] reads less than 5 µM; that for `CN1OCC(C)(c2cccc(-c3cccc(C#N)c3)c2)NC1=N` (stereo not shown), less than 5 µM; that for `COCC1CCCN1C(=O)c1cncc(CN2C(=N)NC(c3ccccc3)(C3CC3)C2=O)c1` (stereo not shown), less than 5 µM.
The same measure, in the same setting: the result for `N=C1NC(c2ccccc2)(c2ccccc2)C(=O)N1CC1CCN(S(=O)(=O)c2ccc(OC(F)(F)F)cc2)CC1` [piperidine, 4-[(2-imino-5-oxo-4,4-diphenyl-1-imidazolidinyl)methyl]-1-[[4-(trifluoromethoxy)phenyl]sulfonyl]-] reads less than 5 µM.
For the compound `CN1C(=N)N[C@](C)(c2cc(-c3cccc(C#N)c3)nn2C)CC1=O`, in assay [2] (read-out: BACE-1 Ki), the Ki is less than 5 µM.
On to `COc1ccc(C=O)c(-c2cccc(C3(C)NC(=N)N(CC4CCN(C(C)=O)CC4)C3=O)c2)c1` (stereo not shown), for which the Ki in assay [2] is less than 5 µM.
For `CN1C(=N)N[C@](C)(c2cc(-c3ccc(F)c(C#N)c3)cs2)[C@@H](C2CC2)C1=O`, the Ki in assay [2] (read-out: BACE-1 Ki) is less than 5 µM.
The same measure, in the same setting: the result for `Cn1nccc1CN1C(=N)NC(c2ccccc2)(c2ccccc2)C1=O` reads less than 5 µM; that for `CN1C(=N)NC(C)(c2cccc(-c3cc(Cl)ccc3CNC(=O)c3ccnnc3)c2)C1=O` (stereo not shown), less than 5 µM; that for `CN1C(=N)NC(C)(c2cccc(-c3cc(Cl)ccc3CNC(=O)Nc3ccc(Cl)cc3)c2)C1=O` (stereo not shown) [urea, N-[[5-chloro-3′-(2-imino-1,4-dimethyl-5-oxo-4-imidazolidinyl)[1,1′-biphenyl]-2-yl]methyl]-N′-(4-chlorophenyl)-], less than 5 µM.
Still for that read-out and setting: as for `CC(C)Oc1cc(Cl)cc(-c2csc([C@]3(C)CC(=O)N(C)C(=N)N3)c2)c1`, the figure is less than 5 µM; as for `CN1C(=N)N[C@](C)(c2scc(C#N)c2F)CC1=O`, less than 5 µM.
As to `C[C@@]1(c2cc(-c3cccc(C#N)c3)cs2)CC(=O)N(Cc2ccncc2)C(=N)N1`, the Ki in assay [2] (read-out: BACE-1 Ki) is less than 5 µM.
On the same count and under the same terms, as for `CN1C(=N)N[C@](C)(c2ccc(C#N)s2)[C@@H](c2ccc(C(C)(F)F)cc2)C1=O`, the figure is less than 5 µM.
Same read-out and setting: as for `CC(=O)N1CCC(CN2C(=N)N[C@@](c3cccc(-c4cncc(Br)c4)c3)(C3CC3)C2=O)CC1`, the figure is less than 5 µM; as for `CN1C(=N)NC(c2ccccc2)(c2cc(-c3cccc(Cl)c3)cs2)C1=O` (stereo not shown) [5-[4-(3-CHLOROPHENYL)-2-THIENYL]-2-IMINO-3-METHYL-5-PHENYL-4-IMIDAZOLIDINONE], less than 5 µM; as for `CN1C(=N)N[C@](C)(c2cc(-c3ccc(Cl)s3)cs2)CC1=O`, less than 5 µM.
The same measure, in the same setting: the result for `CN1C(=N)N[C@](C)(c2cc(-c3cccc(C#N)c3)cs2)[C@@H](c2csc3ccccc23)C1=O` reads less than 5 µM.
As to `CN1C(=N)N[C@](C)(c2cnc(-c3cccc(C#N)c3)s2)CC1=O`, in assay [2] (read-out: BACE-1 Ki), the Ki was less than 5 µM.
Compound `N=C1N[C@](CCC2CCCCC2)(CC2CCCCC2)C(=O)N1Cc1ccc(F)cc1` yielded a Ki in assay [1] (setting [3]) of less than 75 nM.
On to `N=C1NC(c2ccccc2)(c2ccccc2)C(=O)N1Cc1ccoc1`, for which, in assay [2] (read-out: BACE-1 Ki), the Ki is less than 5 µM.
Still for that read-out and setting: as for `C=C1C(=O)N(C)C(=N)N[C@]1(C)c1cccc(-c2cccc(C#N)c2)c1`, the figure is less than 5 µM; as for `COc1ccc2c(c1)CC[C@@]21C(=O)N(C)C(=N)N[C@]1(C)c1cc(-c2cccc(C#N)c2)cs1`, less than 5 µM.
With `Cc1ccccc1CN1C(=N)N[C@](CCC2CCCCC2)(CC2CCCCC2)C1=O`, the Ki in assay [1] (setting [3]) was less than 75 nM.
Take `CN1C(=N)N[C@](C)(c2cc(-c3cccc(F)c3)c3sccc3c2)CC1=O`: the inhibition constant (Ki) in assay [2] (read-out: BACE-1 Ki) was less than 5 µM.
The same measure, in the same setting: the result for `CCN(CCc1cccc(C2(c3ccccc3)NC(=N)N(C)C2=O)c1)S(C)(=O)=O` (racemic) reads less than 5 µM; that for `COc1ccccc1C(=O)NCc1ccc(Cl)cc1-c1cccc(C2(C)NC(=N)N(C)C2=O)c1` (stereo not shown) [benzamide, N-[[5-chloro-3′-(2-imino-1,4-dimethyl-5-oxo-4-imidazolidinyl)[1,1′-biphenyl]-2-yl]methyl]-2-methoxy-], less than 5 µM; that for `N=C1NC(c2ccccc2)(c2ccccc2)C(=O)N1Cc1ccsc1`, less than 5 µM.
Still for that read-out and setting: the result for `CC(C)C1(c2cccc(Br)c2)NC(=N)N(C)C1=O` (stereo not shown) reads less than 5 µM.
Still for that read-out and setting: the result for `CN1C(=N)NC(c2ccccc2)(c2cccc(NS(=O)(=O)c3cccc(C#N)c3)c2)C1=O` (racemic) reads less than 5 µM; that for `CN1C(=N)N[C@](C)(c2cccc(-c3cccnc3F)c2)CC1=O`, less than 5 µM; that for `CN1C(=N)N[C@](CCC2CCCCC2)(C[C@H]2CCC[C@@H](NC(=O)NC(=O)c3ccccc3)C2)C1=O`, less than 5 µM.
As to `CN1C(=N)NC(c2ccccc2)(c2cccc(-c3cc(Br)cc(OC(F)(F)F)c3)c2)C1=O` (racemic), the Ki in assay [2] (read-out: BACE-1 Ki) was less than 5 µM.
The same measure, in the same setting: as for `CN1C(=N)NC(C)(c2ccc(C#N)s2)C(c2ccc(Cl)c(Cl)c2)C1=O` (stereo not shown), the figure is less than 5 µM.
Still for that read-out and setting: as for `CN1C(=N)NC(C)(c2ccnc(-c3cc(Cl)cc(Cl)c3)c2)C1=O` (stereo not shown), the figure is less than 5 µM.
Consider `CN1C(=N)N[C@](C)(c2cc(-c3cccc(OC(F)(F)F)c3)ccn2)CC1=O`, for which the Ki in assay [2] (read-out: BACE-1 Ki) was less than 5 µM.
The same measure, in the same setting: as for `CN1C(=N)N[C@](C)(c2cc3cccc(Br)c3s2)CC1=O`, the figure is less than 5 µM; as for `COc1cccc(-c2cc(F)cc(C3(c4ccccc4)NC(=N)N(C)C3=O)c2)c1` (racemic), less than 5 µM.
The same measure, in the same setting: the result for `CN1C(=N)N[C@](C)(c2ccc(F)cc2F)[C@@H](c2ccc(N3CCCS3(=O)=O)cc2)C1=O` reads less than 5 µM.
The same measure, in the same setting: as for `CN1C(=N)N[C@](C)(c2c(F)cc(F)cc2F)[C@@H](c2ccc(C(C)(F)F)cc2)C1=O`, the figure is less than 5 µM.
Regarding `CN1C(=N)N[C@](CCC2CCCCC2)(C[C@H]2CCC[C@@H](NC(=O)c3ccccn3)C2)C1=O`, the Ki in assay [2] (read-out: BACE-1 Ki) was less than 5 µM.
The same measure, in the same setting: as for `N=C1NC(c2ccccc2)(c2ccccc2)C(=O)N1Cc1cccc(NC(=O)C2CCCC2)c1`, the figure is less than 5 µM; as for `CN1C(=N)NC(C)(c2cc(-c3cccc(C#N)c3)cs2)C(CCCc2ccccc2)C1=O` (stereo not shown), less than 5 µM.
On the same count and under the same terms, the result for `N=C1NC(c2ccccc2)(c2ccccc2)C(=O)N1CC1CCN(S(=O)(=O)c2ccccc2)CC1` [piperidine, 4-[(2-imino-5-oxo-4,4-diphenyl-1-imidazolidinyl)methyl]-1-(phenylsulfonyl)-] reads less than 5 µM; that for `CN1C(=N)N[C@](C)(c2csc3c(-c4cccc(C#N)c4)cccc23)CC1=O`, less than 5 µM.

By Ki is commonly meant the equilibrium dissociation constant of an inhibitor or competing ligand from its target.
